{"source": "patent US20100226981A1", "about": "“ORAL DOSAGE FORMS HAVING A HIGH LOADING OF A GABAPENTIN PRODRUG” (XenoPort, Inc., priority 2009, published 2010)", "key": {"[1]": {"experiment": "Flow characterization of dry powders and granulations (density, Carr, Hausner, Flodex)", "type": "physicochemical", "details": "ungranulated, no water", "text": "The flow of dry powders was characterized using a FLODEX™ Powder Flowability Index Test Instrument (Hanson Research Corporation, Chatsworth, Calif.). The instrument was equipped with a cylindrical metal reservoir, which holds the test powder prior to flow testing. The cylindrical reservoir has an inside diameter of 5.7 cm and a length of […]. The bottom end of the reservoir can be closed with removable metal discs. Each disc has a round orifice centered in the disc. Orifice diameters range from 4 mm to 10 mm in 1 mm increments, and from 10 mm to 34 mm in 2 mm increments. Prior to flow testing, the orifice is blocked. Powder is then placed over the blocked orifice. When the orifice is unblocked, powder can flow through the orifice under the force of gravity if the orifice diameter is sufficiently large. Powder that flows through small orifices is considered to have flow properties useful for tableting. For example, a Flodex measurement (Flodex) of less than about 24 mm is typically used for high-speed tableting operations at commercial scale. A Flodex less than about 20 mm is useful for high-speed tableting operations. A Flodex of 18 mm or less is considered especially useful for high throughput tableting operations.\nThe Flodex is determined by first gently filling the reservoir while the orifice at the bottom is blocked with approximately 70 cc of test powder, while avoiding severe piling, and without vibrating or tapping the powder bed. Next, the orifice is unblocked. This can be accomplished by opening a shutter that is supplied with the instrument. Alternatively, if a shutter is not used, the powder-filled reservoir fitted with a disc can be set on a dry, flat surface to block the orifice. Then, slowly and evenly, the reservoir is lifted to allow the powders to flow. In either procedure, if the powder flows through the orifice, a clear channel is left within the powder bed. […] The flow test is conducted with various orifice sizes until the minimum orifice size for good flow is identified, which is referred to as the Flodex.\nThe impact of the amount of water used during high shear wet granulation on the strength of granules was determined. Granulations containing either 98 wt-% compound (1), 1 wt-% METHOCELT™-E4M and 1 wt-% SLS, or 97 wt-% compound (1) and 3 wt-% METHOCEL™-E4M, were prepared using from 20 wt-% to 30 wt-% water, dried, and the granule strength measured by determining the air pressure at which the particles began to fracture using a Sympatec particle analyzer (QicPic/RODOS-L/VIBRI-L, Sympatec GmbH, Clausthal-Zellerfeld, DE).\nThe Main Blend contained 98 wt-% compound (1), 1 wt-% METHOCELT™-E4M, and 1 wt-% SLS. Blend D contained 90 wt-% granules blended with 8 wt-% METHOCEL™-K100M and 2 wt-% magnesium stearate, and Blend E contained 89 wt-% granules blended with 8 wt-% METHOCEL™-K100M and 3 wt-% magnesium stearate and were prepared as described in Example 4."}, "[2]": {"details": "dosed either orally or directly into the colon of a mammal; cited from earlier work"}}, "data": [{"smiles": "CC(OC(=O)NCC1(CC(=O)O)CCCCC1)OC(=O)C(C)C", "note": "(stereo not drawn) [Compound (1), 1-([(α-Isobutanoyloxyethoxy)carbonyl]aminomethyl)-1-cyclohexane acetic acid]", "values": [{"measurement": "Bulk Density", "setting": "[1]", "result": 0.329, "unit": "gm/mL"}, {"measurement": "Carr Index", "setting": "[1]", "result": 27.0}, {"measurement": "Flodex", "setting": "[1]", "result": ">34", "unit": "mm"}, {"measurement": "Hausner Ratio", "setting": "[1]", "result": 1.37}, {"measurement": "Tap Density", "setting": "[1]", "result": 0.450, "unit": "gm/mL"}, {"measurement": "bioavailability as gabapentin", "setting": "[2]", "result": "high bioavailability as gabapentin"}]}]}
